Laboratory results taken from PMC12589487, “Molecular basis of vitamin K-dependent protein γ-glutamyl carboxylation” (Cell Research, 2025).
Values belong to the compound of their own block, whether it stands above or below them.

What was measured:
GGCX^AA•FX complex = biological target: T1, GGCX^AA•FX complex (Homo sapiens, UniProt P38435, K217A/K218A); experiment: cryo-EM structure, […] Å; assay type: binding; conditions: catalytically inactive GGCX double mutant
T1 construct: GGCX K217A/K218A double mutant in complex with FX, cryo-EM; with Coagulation factor X
T1 sequence (P38435 whole entry K217A/K218A): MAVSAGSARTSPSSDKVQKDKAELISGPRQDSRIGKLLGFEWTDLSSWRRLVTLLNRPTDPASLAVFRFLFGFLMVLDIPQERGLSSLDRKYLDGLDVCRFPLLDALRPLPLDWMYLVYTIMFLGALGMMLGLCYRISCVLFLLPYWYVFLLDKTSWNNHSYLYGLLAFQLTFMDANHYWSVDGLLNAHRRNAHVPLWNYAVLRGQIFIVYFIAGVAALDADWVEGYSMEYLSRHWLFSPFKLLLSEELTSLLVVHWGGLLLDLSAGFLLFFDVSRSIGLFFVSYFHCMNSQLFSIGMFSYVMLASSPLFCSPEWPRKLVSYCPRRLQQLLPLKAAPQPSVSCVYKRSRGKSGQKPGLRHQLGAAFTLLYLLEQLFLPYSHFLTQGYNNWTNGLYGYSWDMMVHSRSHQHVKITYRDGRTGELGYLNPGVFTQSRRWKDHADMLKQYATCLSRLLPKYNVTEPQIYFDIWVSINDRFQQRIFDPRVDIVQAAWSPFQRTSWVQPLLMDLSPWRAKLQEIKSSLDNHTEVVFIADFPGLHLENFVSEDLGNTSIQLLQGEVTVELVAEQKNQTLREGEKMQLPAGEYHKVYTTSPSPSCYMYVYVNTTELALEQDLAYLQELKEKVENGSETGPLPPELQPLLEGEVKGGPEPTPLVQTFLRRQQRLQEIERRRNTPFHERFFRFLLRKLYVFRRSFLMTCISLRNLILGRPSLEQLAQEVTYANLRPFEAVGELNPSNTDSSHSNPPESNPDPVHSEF
T1 sequence (P00742 32-488 partner limits assumed): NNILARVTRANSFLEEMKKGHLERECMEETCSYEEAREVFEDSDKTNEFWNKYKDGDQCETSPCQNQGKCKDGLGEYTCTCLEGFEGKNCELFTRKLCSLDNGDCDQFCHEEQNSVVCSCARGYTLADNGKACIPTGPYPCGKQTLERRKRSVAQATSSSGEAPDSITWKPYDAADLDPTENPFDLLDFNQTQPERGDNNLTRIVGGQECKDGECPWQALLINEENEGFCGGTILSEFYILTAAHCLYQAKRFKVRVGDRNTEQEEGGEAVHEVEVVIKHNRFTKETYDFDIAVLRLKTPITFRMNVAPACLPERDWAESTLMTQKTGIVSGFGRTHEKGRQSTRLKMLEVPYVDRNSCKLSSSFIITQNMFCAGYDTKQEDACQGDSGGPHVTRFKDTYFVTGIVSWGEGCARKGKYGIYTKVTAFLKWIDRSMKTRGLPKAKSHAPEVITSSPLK

GGCX•FIX complex [1] = biological target: T2, GGCX•FIX complex (Homo sapiens, UniProt P38435, K217A/K218A); experiment: cryo-EM structure, […] Å; assay type: binding; conditions: catalytically inactive GGCX double mutant
T2 construct: GGCX co-expressed with full-length FIX in HEK293F cells, cryo-EM in detergent micelle; FIX propeptide and GLA domain (residues 29-92) resolved; WT and K217A/K218A GGCX; with Coagulation factor IX
T2 sequence (P38435 whole entry K217A/K218A, the tested form may be a part): as the sequence (P38435 whole entry K217A/K218A) above
T2 sequence (P00740 29-461 partner): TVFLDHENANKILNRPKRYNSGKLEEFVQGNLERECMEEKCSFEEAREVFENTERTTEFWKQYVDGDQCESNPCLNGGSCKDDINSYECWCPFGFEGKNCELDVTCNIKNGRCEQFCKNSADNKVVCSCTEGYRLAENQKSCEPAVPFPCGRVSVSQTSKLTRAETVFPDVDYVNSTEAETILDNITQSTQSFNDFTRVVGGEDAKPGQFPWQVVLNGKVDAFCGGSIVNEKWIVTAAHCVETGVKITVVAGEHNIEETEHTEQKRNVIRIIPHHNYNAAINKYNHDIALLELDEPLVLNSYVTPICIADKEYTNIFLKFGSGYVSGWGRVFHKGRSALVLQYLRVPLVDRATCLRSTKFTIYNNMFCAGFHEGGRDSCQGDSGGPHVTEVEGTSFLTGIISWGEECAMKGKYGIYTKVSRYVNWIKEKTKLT

GGCX•FIX complex [2] = biological target: T3, GGCX•FIX complex (Homo sapiens, UniProt P38435); experiment: cryo-EM structure, […] Å; assay type: binding
T3 construct: GGCX co-expressed with full-length FIX in HEK293F cells, cryo-EM in detergent micelle; FIX propeptide and GLA domain (residues 29-92) resolved; WT and K217A/K218A GGCX; with Coagulation factor IX
T3 sequence (P38435 whole entry, the tested form may be a part): as the sequence (P38435 whole entry K217A/K218A) above, with A217K, A218K counted along it
T3 sequence (P00740 29-461 partner): as the sequence (P00740 29-461 partner) above

GGCX [3] = biological target: T4, GGCX (Homo sapiens, UniProt P38435); experiment: binding assay, method not told in main text (Fig. S9); conditions: homologue not told in main text
T4 construct: Flag-tagged GGCX used in pull-downs
T4 sequence (P38435 2-758): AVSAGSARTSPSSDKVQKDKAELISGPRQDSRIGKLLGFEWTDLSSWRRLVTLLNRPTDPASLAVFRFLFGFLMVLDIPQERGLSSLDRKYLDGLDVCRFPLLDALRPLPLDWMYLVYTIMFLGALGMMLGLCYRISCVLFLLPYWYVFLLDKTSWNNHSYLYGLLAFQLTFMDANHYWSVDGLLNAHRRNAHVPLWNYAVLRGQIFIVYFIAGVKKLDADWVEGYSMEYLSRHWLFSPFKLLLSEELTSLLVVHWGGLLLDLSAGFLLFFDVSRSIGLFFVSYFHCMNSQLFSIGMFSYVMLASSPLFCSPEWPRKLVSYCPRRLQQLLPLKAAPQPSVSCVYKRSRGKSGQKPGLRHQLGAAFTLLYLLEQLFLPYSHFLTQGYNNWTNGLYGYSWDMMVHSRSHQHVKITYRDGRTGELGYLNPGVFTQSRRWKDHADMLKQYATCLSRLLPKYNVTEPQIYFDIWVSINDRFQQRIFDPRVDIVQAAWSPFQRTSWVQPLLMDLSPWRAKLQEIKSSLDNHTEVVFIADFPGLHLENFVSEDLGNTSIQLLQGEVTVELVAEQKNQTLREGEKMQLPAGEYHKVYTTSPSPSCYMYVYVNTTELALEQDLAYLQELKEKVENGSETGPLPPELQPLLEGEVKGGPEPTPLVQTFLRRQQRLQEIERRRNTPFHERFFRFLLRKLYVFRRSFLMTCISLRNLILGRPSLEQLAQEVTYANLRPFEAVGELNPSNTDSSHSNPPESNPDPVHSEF

GGCX [4] = biological target: T4, GGCX; experiment: binding assay, method not told in main text (Fig. S8); conditions: form and homologue of vitamin K not told in main text

Compound: CC(C)=CCC/C(C)=C/CC/C(C)=C/CC/C(C)=C/Cc1c(C)c(O)c2ccccc2c1O [MKH2-4]
cryo-EM structure, 2.58 Å (GGCX^AA•FX complex): unambiguous assignment of the bound molecule as MK-4 hydroquinone (MKH2-4)
cryo-EM structure, 2.59 Å (GGCX•FIX complex [1]): unambiguous assignment of the bound molecule as MK-4 hydroquinone (MKH2-4)
cryo-EM structure, 2.78 Å (GGCX•FIX complex [2]; co-purified endogenous vitamin K, MK-4 by LC-MS/MS, ligand modelled by superposition with the K217A/K218A complex): Superimposing GGCX^WT•FIX onto GGCX^AA•FIX facilitated modeling of MKH2-4 into the WT binding pocket

Compound: CC(C)CCC[C@@H](C)[C@H]1CC[C@H]2[C@@H]3CC=C4C[C@@H](O)CC[C@]4(C)[C@H]3CC[C@]12C [cholesterol]
cryo-EM structure, 2.78 Å (GGCX•FIX complex [2]; co-purified lipid, which deposited model holds it is not told explicitly): A well-resolved co-purified cholesterol was also observed

Kd (GGCX [3]): ~8.19 µM
Compound: VKO

Kd (GGCX [4]): ~0.85 µM
Compound: vitamin K
